Assay results as given in ChEMBL document CHEMBL1177794, “Broad spectrum alkynyl inhibitors of T315I Bcr-Abl” (Bioorg Med Chem Lett, 2010).

Columns and labels:
[1] = biological target: AP2-associated protein kinase 1 (Homo sapiens) (UniProt Q2M2I8); assay: Inhibition of AAK1 at 10 uM; conditions: values are per cent of control
[2] = biological target: Activin receptor type-1-like (Homo sapiens) (UniProt P37023); assay: Inhibition of ACVRL1 at 10 uM; conditions: values are per cent of control
[3] = biological target: Calcium/calmodulin-dependent protein kinase type II subunit beta (Homo sapiens) (UniProt Q13554); assay: Inhibition of CAMK2B at 10 uM; conditions: values are per cent of control
[4] = biological target: Calcium/calmodulin-dependent protein kinase type IV (Homo sapiens) (UniProt Q16566); assay: Inhibition of CAMK4 at 10 uM; conditions: values are per cent of control
[5] = biological target: Cyclin-dependent kinase-like 5 (Homo sapiens) (UniProt O76039); assay: Inhibition of CDKL5 at 10 uM; conditions: values are per cent of control
[6] = biological target: Dual specificity protein kinase CLK1 (Homo sapiens) (UniProt P49759); assay: Inhibition of CLK1 at 10 uM; conditions: values are per cent of control
Sequence of Dual specificity protein kinase CLK1 (Homo sapiens) (P49759 whole entry, looked up): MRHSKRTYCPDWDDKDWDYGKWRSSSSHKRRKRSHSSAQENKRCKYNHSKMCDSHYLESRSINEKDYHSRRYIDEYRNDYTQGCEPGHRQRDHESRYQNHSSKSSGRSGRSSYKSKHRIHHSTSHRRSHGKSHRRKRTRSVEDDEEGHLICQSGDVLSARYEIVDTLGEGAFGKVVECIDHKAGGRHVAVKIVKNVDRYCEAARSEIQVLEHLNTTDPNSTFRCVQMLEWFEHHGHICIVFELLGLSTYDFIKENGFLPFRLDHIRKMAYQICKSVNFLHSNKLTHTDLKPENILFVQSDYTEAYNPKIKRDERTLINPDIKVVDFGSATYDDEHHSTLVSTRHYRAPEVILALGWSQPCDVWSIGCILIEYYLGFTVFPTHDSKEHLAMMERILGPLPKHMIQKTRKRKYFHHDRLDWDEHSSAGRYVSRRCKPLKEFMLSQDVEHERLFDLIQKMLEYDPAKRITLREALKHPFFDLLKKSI

[7] = biological target: Death-associated protein kinase 2 (Homo sapiens) (UniProt Q9UIK4); assay: Inhibition of DAPK2 at 10 uM; conditions: values are per cent of control
[8] = biological target: Ephrin type-A receptor 2 (Homo sapiens) (UniProt P29317); assay: Inhibition of EPHA2 at 10 uM; conditions: values are per cent of control
[9] = biological target: Ephrin type-A receptor 4 (Homo sapiens) (UniProt P54764); assay: Inhibition of EPHA4 at 10 uM; conditions: values are per cent of control
Sequence of Ephrin type-A receptor 4 (Homo sapiens) (P54764 whole entry): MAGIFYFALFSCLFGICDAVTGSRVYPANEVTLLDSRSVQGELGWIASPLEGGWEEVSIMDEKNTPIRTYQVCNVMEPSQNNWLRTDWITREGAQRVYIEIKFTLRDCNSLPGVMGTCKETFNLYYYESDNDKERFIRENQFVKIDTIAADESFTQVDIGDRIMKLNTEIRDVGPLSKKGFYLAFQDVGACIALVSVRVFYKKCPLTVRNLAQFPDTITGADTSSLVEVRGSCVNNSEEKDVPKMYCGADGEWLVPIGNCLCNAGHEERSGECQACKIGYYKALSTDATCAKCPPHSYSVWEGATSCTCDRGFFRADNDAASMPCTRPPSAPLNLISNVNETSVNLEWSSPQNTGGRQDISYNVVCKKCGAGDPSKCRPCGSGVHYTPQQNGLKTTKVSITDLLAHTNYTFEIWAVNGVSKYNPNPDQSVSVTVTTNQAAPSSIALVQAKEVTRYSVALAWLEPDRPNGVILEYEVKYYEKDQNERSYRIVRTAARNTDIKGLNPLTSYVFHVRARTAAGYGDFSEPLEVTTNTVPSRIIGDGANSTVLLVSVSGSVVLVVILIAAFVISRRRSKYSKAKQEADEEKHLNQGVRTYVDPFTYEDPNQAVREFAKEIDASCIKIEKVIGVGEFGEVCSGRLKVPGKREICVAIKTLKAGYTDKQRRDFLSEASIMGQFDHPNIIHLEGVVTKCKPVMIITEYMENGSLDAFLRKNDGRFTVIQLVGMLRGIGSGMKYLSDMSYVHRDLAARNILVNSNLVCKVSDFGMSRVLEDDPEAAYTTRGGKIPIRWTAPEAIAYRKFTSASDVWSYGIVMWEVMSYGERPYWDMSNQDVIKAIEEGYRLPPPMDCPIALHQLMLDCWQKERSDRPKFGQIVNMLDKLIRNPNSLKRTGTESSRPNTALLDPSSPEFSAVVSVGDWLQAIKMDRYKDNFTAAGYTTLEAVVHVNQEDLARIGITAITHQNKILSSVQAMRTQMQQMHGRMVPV

[10] = biological target: Mitogen-activated protein kinase 3 (Homo sapiens) (UniProt P27361); assay: Inhibition of ERK1 at 10 uM; conditions: values are per cent of control
[11] = biological target: Tyrosine-protein kinase Fes/Fps (Homo sapiens) (UniProt P07332); assay: Inhibition of FES at 10 uM; conditions: values are per cent of control
[12] = biological target: Fibroblast growth factor receptor 2 (Homo sapiens) (UniProt P21802); assay: Inhibition of FGFR2 at 10 uM; conditions: values are per cent of control
[13] = system: Receptor-type tyrosine-protein kinase FLT3 (Homo sapiens), P36888 [R834Q]; assay: Inhibition of FLT3 R834Q mutant at 10 uM; conditions: values are per cent of control
[14] = biological target: G protein-coupled receptor kinase 4 (Homo sapiens) (UniProt P32298); assay: Inhibition of GRK4 at 10 uM; conditions: values are per cent of control
[15] = system: Mast/stem cell growth factor receptor Kit (Homo sapiens), P10721 [V559D,V654A]; assay: Inhibition of KIT V559D, V654A mutant at 10 uM; conditions: values are per cent of control
[16] = biological target: Serine/threonine-protein kinase MAK (Homo sapiens) (UniProt P20794); assay: Inhibition of MAK at 10 uM; conditions: values are per cent of control
[17] = biological target: Microtubule-associated serine/threonine-protein kinase 1 (Homo sapiens) (UniProt Q9Y2H9); assay: Inhibition of MAST1 at 10 uM; conditions: values are per cent of control
[18] = biological target: Dual specificity mitogen-activated protein kinase kinase 1 (Homo sapiens) (UniProt Q02750); assay: Inhibition of MEK1 at 10 uM; conditions: values are per cent of control
[19] = biological target: Dual specificity mitogen-activated protein kinase kinase 7 (Homo sapiens) (UniProt O14733); assay: Inhibition of MKK7 at 10 uM
[20] = biological target: Serine/threonine-protein kinase 3 (Homo sapiens) (UniProt Q13188); assay: Inhibition of MST2 at 10 uM
Sequence of Serine/threonine-protein kinase 3 (Homo sapiens) (Q13188 whole entry): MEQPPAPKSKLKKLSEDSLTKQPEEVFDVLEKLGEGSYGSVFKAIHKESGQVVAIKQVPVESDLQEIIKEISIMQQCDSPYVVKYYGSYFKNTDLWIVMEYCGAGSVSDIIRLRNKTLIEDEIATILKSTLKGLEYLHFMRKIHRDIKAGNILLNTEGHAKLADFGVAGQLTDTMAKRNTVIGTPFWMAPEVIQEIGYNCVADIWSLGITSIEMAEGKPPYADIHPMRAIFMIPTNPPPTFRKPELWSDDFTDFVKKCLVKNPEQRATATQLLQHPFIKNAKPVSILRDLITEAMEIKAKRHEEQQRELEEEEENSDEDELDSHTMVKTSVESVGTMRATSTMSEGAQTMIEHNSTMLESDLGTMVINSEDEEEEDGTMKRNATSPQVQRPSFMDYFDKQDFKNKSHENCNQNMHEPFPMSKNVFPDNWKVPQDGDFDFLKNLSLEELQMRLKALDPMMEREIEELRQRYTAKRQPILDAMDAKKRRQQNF

[21] = biological target: Serine/threonine-protein kinase Nek11 (Homo sapiens) (UniProt Q8NG66); assay: Inhibition of NEK11 at 10 uM
[22] = biological target: Serine/threonine-protein kinase Nek2 (Homo sapiens) (UniProt P51955); assay: Inhibition of NEK2 at 10 uM
[23] = biological target: Serine/threonine-protein kinase Nek3 (Homo sapiens) (UniProt P51956); assay: Inhibition of NEK3 at 10 uM
[24] = biological target: Dual specificity testis-specific protein kinase 1 (Homo sapiens) (UniProt Q15569); assay: Inhibition of TESK1 at 10 uM
[25] = biological target: TGF-beta receptor type-1 (Homo sapiens) (UniProt P36897); assay: Inhibition of TGFBR1 at 10 uM
Sequence of TGF-beta receptor type-1 (Homo sapiens) (P36897 whole entry): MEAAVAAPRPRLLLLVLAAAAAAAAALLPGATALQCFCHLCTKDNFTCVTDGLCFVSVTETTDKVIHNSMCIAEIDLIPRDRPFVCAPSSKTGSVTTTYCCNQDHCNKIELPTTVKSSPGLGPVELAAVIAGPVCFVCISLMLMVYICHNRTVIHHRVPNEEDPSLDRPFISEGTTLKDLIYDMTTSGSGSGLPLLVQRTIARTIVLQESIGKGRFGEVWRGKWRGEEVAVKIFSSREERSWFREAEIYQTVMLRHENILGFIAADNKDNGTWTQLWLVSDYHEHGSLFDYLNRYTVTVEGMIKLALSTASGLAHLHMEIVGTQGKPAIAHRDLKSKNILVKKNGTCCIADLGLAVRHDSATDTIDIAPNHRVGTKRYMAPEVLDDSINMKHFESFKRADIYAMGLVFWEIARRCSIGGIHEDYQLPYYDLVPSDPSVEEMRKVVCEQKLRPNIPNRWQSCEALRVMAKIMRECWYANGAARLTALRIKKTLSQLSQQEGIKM

[26] = biological target: Dual specificity protein kinase TTK (Homo sapiens) (UniProt P33981); assay: Inhibition of TTK at 10 uM; conditions: values are per cent of control
[27] = biological target: Serine/threonine-protein kinase ULK1 (Homo sapiens) (UniProt O75385); assay: Inhibition of ULK1 at 10 uM; conditions: values are per cent of control
[28] = biological target: 3-phosphoinositide-dependent protein kinase 1 (Homo sapiens) (UniProt O15530); assay: Inhibition of PDPK1 at 10 uM
[29] = biological target: Phosphatidylinositol 3-kinase C2 domain-containing subunit gamma (Homo sapiens) (UniProt O75747); assay: Inhibition of PIK3C2G at 10 uM
[30] = system: Phosphatidylinositol 4,5-bisphosphate 3-kinase catalytic subunit alpha isoform (Homo sapiens), P42336 [H1047Y]; assay: Inhibition of PIK3CA H1047Y mutant at 10 uM
[31] = biological target: Phosphatidylinositol 4-phosphate 5-kinase type-1 alpha (Homo sapiens) (UniProt Q99755); assay: Inhibition of PIP5K1A at 10 uM
[32] = biological target: cAMP-dependent protein kinase catalytic subunit PRKX (Homo sapiens) (UniProt P51817); assay: Inhibition of PRKX at 10 uM
Sequence of cAMP-dependent protein kinase catalytic subunit PRKX (Homo sapiens) (P51817 whole entry): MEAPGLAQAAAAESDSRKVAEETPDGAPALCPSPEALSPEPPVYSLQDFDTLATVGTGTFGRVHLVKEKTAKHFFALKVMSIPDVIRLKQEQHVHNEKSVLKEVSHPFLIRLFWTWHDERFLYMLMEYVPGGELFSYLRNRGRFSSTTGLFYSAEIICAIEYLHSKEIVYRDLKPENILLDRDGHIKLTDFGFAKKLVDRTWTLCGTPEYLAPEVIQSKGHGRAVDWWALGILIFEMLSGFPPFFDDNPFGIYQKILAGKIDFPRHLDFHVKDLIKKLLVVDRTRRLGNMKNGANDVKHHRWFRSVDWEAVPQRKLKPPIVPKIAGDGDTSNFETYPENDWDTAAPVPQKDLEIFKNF

[33] = biological target: Serine/threonine-protein kinase RIO3 (Homo sapiens) (UniProt O14730); assay: Inhibition of RIOK3 at 10 uM
[34] = biological target: Rho-associated protein kinase 2 (Homo sapiens) (UniProt O75116); assay: Inhibition of ROCK2 at 10 uM
[35] = biological target: Ribosomal protein S6 kinase alpha-5 (Homo sapiens) (UniProt O75582); assay: Inhibition of RPS6KA5 C-terminal domain2 at 10 uM
[36] = biological target: Ribosomal protein S6 kinase alpha-2 (Homo sapiens) (UniProt Q15349); assay: Inhibition of RSK3 C-terminal domain2 at 10 uM
Sequence of Ribosomal protein S6 kinase alpha-2 (Homo sapiens) (Q15349 whole entry, the tested form may be a part): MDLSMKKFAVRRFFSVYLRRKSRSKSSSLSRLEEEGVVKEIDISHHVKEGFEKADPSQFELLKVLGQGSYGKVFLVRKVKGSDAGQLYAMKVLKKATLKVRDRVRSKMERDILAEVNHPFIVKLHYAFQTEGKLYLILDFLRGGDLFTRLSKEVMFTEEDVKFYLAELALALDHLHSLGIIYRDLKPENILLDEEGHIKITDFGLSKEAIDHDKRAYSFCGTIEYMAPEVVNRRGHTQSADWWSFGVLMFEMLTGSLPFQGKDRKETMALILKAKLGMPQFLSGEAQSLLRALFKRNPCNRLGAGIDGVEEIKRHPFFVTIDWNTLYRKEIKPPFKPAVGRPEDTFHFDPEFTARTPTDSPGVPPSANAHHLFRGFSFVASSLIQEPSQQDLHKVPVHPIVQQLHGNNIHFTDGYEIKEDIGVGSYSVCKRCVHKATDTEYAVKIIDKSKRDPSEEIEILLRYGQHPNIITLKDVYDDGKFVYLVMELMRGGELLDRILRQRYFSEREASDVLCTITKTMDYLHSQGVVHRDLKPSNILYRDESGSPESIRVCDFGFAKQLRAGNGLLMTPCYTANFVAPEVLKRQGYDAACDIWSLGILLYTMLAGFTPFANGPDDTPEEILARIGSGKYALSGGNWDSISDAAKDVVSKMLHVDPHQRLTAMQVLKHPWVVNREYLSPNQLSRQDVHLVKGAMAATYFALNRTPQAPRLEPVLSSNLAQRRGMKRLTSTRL

[37] = biological target: Serine/threonine-protein kinase SBK1 (Homo sapiens) (UniProt Q52WX2); assay: Inhibition of SBK1 at 10 uM
[38] = biological target: cAMP-dependent protein kinase catalytic subunit alpha (Homo sapiens) (UniProt P17612); assay: Inhibition of PKAC-alpha at 10 uM; conditions: values are per cent of control
[39] = biological target: Mitogen-activated protein kinase kinase kinase 13 (Homo sapiens) (UniProt O43283); assay: Inhibition of LZK at 10 uM; values are per cent of control
Sequence of Mitogen-activated protein kinase kinase kinase 13 (Homo sapiens) (O43283 whole entry): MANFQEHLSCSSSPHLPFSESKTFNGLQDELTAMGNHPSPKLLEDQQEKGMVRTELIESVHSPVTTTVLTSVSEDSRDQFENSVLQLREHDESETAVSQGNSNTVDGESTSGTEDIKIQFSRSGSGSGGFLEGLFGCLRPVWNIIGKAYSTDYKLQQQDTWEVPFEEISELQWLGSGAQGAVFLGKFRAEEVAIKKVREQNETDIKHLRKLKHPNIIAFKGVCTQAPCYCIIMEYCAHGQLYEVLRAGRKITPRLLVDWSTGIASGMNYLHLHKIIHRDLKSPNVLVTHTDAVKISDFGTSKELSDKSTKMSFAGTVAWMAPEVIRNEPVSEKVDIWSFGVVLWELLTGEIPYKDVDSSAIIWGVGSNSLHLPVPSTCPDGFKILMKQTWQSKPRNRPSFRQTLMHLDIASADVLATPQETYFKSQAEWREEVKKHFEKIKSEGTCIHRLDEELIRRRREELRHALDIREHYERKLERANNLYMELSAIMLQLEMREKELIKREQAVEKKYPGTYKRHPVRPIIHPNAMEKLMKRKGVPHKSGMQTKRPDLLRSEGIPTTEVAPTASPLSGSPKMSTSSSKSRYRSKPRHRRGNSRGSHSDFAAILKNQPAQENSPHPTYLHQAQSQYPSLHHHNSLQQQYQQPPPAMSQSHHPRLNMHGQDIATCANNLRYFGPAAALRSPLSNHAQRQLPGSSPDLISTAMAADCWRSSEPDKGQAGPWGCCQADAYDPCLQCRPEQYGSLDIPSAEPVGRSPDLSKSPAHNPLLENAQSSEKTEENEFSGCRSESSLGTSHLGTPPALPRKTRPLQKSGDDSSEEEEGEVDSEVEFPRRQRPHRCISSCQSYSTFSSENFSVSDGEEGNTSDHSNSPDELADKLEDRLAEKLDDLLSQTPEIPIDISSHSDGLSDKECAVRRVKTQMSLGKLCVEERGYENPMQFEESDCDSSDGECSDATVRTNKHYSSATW

[40] = biological target: Myosin light chain kinase, smooth muscle (Homo sapiens) (UniProt Q15746); assay: Inhibition of MLCK at 10 uM; values are per cent of control
[41] = biological target: Angiopoietin-1 receptor (Homo sapiens) (UniProt Q02763); assay: Inhibition of TIE2 at 10 uM; values are per cent of control
[42] = biological target: Ephrin type-B receptor 2 (Homo sapiens) (UniProt P29323); assay: Inhibition of EPHB2 at 10 uM; values are per cent of control
[43] = biological target: Activin receptor type-2B (Homo sapiens) (UniProt Q13705); assay: Inhibition of ACVR2B at 10 uM; values are per cent of control
Sequence of Activin receptor type-2B (Homo sapiens) (Q13705 whole entry): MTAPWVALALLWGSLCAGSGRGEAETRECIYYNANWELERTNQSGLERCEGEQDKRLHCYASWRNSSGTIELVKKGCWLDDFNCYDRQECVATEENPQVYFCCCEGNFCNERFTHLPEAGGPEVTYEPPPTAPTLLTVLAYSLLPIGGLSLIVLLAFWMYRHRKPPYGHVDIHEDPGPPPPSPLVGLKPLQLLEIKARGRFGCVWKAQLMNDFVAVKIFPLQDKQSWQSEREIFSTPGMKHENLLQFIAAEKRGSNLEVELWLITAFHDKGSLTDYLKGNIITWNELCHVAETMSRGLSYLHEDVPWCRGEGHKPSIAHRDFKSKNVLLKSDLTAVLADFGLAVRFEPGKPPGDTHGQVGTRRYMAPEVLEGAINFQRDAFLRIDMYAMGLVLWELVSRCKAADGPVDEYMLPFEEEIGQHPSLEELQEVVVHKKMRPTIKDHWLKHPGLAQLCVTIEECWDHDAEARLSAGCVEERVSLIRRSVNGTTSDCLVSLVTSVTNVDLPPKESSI

Structure (SMILES): CCN1CCN(Cc2ccc(NC(=O)c3ccc(C)c(C#Cc4cnc5[nH]ccc5c4)c3)cc2C(F)(F)F)CC1
- residual binding, % of control [1]: 59%
- residual binding, % of control [2]: 100%
- residual binding, % of control [3]: 100%
- residual binding, % of control [4]: 100%
- residual binding, % of control [5]: 28%
- residual binding, % of control [6]: 6.8%
- residual binding, % of control [7]: 100%
- residual binding, % of control [8]: 0.35%
- residual binding, % of control [9]: 0.25%
- residual binding, % of control [10]: 96%
- residual binding, % of control [11]: 0.1%
- residual binding, % of control [12]: 0.5%
- residual binding, % of control [13]: 7.2%
- residual binding, % of control [14]: 14%
- residual binding, % of control [15]: 1.4%
- residual binding, % of control [16]: 61%
- residual binding, % of control [17]: 100%
- residual binding, % of control [18]: 82%
- inhibition [19]: 5.4%
- inhibition [20]: 26%
- inhibition [21]: 18%
- inhibition [22]: 100%
- inhibition [23]: 49%
- inhibition [24]: 2.4%
- inhibition [25]: 100%
- residual binding, % of control [26]: 2%
- residual binding, % of control [27]: 38%
- inhibition [28]: 60%
- inhibition [29]: 100%
- inhibition [30]: 82%
- inhibition [31]: 10%
- inhibition [32]: 19%
- inhibition [33]: 38%
- inhibition [34]: 18%
- inhibition [35]: 97%
- inhibition [36]: 87%
- inhibition [37]: 87%
- residual binding, % of control [38]: 27%
- level, % of control [39]: 7.8%
- % of control [40]: 18%
- % of control [41]: 0%
- level, % of control [42]: 0.6%
- level, % of control [43]: 23%

Structure (SMILES): CCN1CCN(Cc2ccc(NC(=O)c3ccc(C)c(C#Cc4cccnc4)c3)cc2C(F)(F)F)CC1
- residual binding, % of control [1]: 99%
- residual binding, % of control [2]: 100%
- residual binding, % of control [3]: 100%
- residual binding, % of control [4]: 100%
- residual binding, % of control [5]: 12%
- residual binding, % of control [6]: 3.9%
- residual binding, % of control [7]: 100%
- residual binding, % of control [8]: 0.4%
- residual binding, % of control [9]: 0%
- residual binding, % of control [10]: 100%
- residual binding, % of control [11]: 0.75%
- residual binding, % of control [12]: 0.5%
- residual binding, % of control [13]: 4.2%
- residual binding, % of control [14]: 47%
- residual binding, % of control [15]: 4.2%
- residual binding, % of control [16]: 9%
- residual binding, % of control [17]: 100%
- residual binding, % of control [18]: 100%
- inhibition [19]: 11%
- inhibition [20]: 53%
- inhibition [21]: 9.1%
- inhibition [22]: 100%
- inhibition [23]: 53%
- inhibition [24]: 60%
- inhibition [25]: 100%
- residual binding, % of control [26]: 16%
- residual binding, % of control [27]: 24%
- inhibition [28]: 84%
- inhibition [29]: 100%
- inhibition [30]: 81%
- inhibition [31]: 79%
- inhibition [32]: 3.6%
- inhibition [33]: 70%
- inhibition [34]: 19%
- inhibition [35]: 100%
- inhibition [36]: 30%
- inhibition [37]: 88%
- residual binding, % of control [38]: 8.4%
- level, % of control [39]: 7.4%
- % of control [40]: 60%
- % of control [41]: 0.05%
- level, % of control [42]: 0.1%
- level, % of control [43]: 96%
